Legend:
Format in all cases: cell-based
[1] = system: LPS-induced RAW264.7 cells; assay: M1/M2 macrophage polarization by flow cytometry; settings: pretreated with (R)-salbutamol following incubation with ICI-118551, LPS
Method: (§1) Macrophages were treated without or with (R)/(S)-salbutamol for 1 h prior to LPS stimulation and subsequently incubated for 12 h. […] The fluorescence of the oxidized product (2′,7′-dichlorofluorescein, DCF) was assessed using an LSM710 Laser Scanning Confocal Microscope (Carl Zeiss, Jena, Germany). The concentration of NO in the culture supernatant was measured by assaying the concentrations of nitrite (a stable NO breakdown product) using the Griess assay (Beyotime, Shanghai, China), according to the manufacturer's instructions. The intracellular NO level was detected using the NO-sensitive fluorescence probe DAF-FM DA (Sigma, St. Louis, Mo., USA) (24). Cells were labeled with DAF-FM DA (10 μM) at 37° C. for 30 min and were gently washed three times with PBS. Fluorescence was detected using a LSM710 Laser Scanning Confocal Microscope (Scale bars, 100 μm) (Carl Zeiss, Jena, Germany).
Macrophages M1 (F4/80+/CD11c+/CD206−) and M2 (F4/80+/CD11c−/CD206+) polarization were analyzed using flow cytometry.

[2] = system: LPS-induced macrophages RAW264.7 cells; assay: Ratio of GSH/GSSG
From the text: The ratio of GSH to GSSG is a marker of oxidative stress.

[3] = system: LPS-induced RAW264.7 cells; assay: mRNA expression of TNF-α, IL-1β and MCP-1 by quantitative real-time PCR; settings: ICI-118551-treated cells compared to the control group
Method: as §1
To examine the mRNA expression of TNF-α, IL-1β and MCP-1, quantitative real-time PCR was performed. Consistent with the cytokine expression study, the mRNA expression of TNF-α was increased by 2.26-fold in the LPS-induced group compared to the control group (FIG. 8D). The mRNA expression of IL-1β and MCP-1 increased by 12.74-fold (FIG. 8E) and 3.1-fold, respectively, in the LPS-induced group compared to the control group (FIG. 8F).

[4] = system: LPS-induced RAW264.7 cells; assay: Seahorse analysis of OCR and ECAR
Method: as §1
Macrophage activation elicited different metabolic profiles. LPS-induced macrophages adopted glycolytic metabolic profiles. This invention disclosed a β2 adrenergic receptor mediated Warburg metabolism (aerobic glycolysis) of in LPS treated macrophages. The OCR and ECAR were measured using an extracellular flux analyzer. […] ECAR is a measurement extracellular acidification rate, an indication of cellular glycolytic rate.

[5] = system: LPS-induced RAW264.7 cells; assay: NO production (DAF-FM DA probe, Griess assay); settings: treatment with ICI-118551 in (R)-salbutamol/LPS cells
Method: as §1
(§2) In addition, the concentration of NO in the culture supernatant was measured by assaying the concentrations of nitrite (a stable NO breakdown product) using the Griess assay. […] To investigate (R)-salbutamol role on the level of iNOS, the mRNA and protein levels of iNOS were determined.

iNOS = iNOS mRNA and protein levels
Method: as §2

Cc1ccc(OCC(O)C(C)NC(C)C)c2c1CCC2 (centres unmarked) [ICI-118551, reference compound]
percentage of M1 macrophages [1]: 55.8% | effect of (R)-salbutamol on GSH/GSSG with ICI-118551 [2]: blocked | mRNA expression of IL-1β, increase [3]: 12.41 fold | mRNA expression of MCP-1, increase [3]: 3.36 fold | mRNA expression of TNF-α, increase [3]: 2.28 fold | metabolism shift by (R)-salbutamol with ICI-118551 treatment [4]: blocked | NO levels [5]: increased NO levels | effects of (R)-salbutamol on iNOS when adding ICI-118551 (iNOS): blocked

Source: patent publication US20220362174A1, “Use of R-enantiomer Beta2-agonists for prevent and treatment of pulmonary inflammation and inflammatory remodeling for reduced adverse effects” (priority 2019, published 2022)
